Measurements taken from ChEMBL document CHEMBL1150808, “General behavior, toxicity, and cytotoxic activity of elenoside, a lignan from Justicia hyssopifolia” (J Nat Prod, 2001).

Experiments:
Mus musculus [1] = species: Mus musculus; assay: Toxicity in Swiss albino mouse assessed as reduction in spontaneous activity after 60 mins by Irwin test; assay type: organism-based; conditions: in vivo, 1 h
Mus musculus [2] = species: Mus musculus; assay: Toxicity in Swiss albino mouse assessed as reduction in motor affective response by Irwin test; assay type: organism-based; conditions: in vivo
Mus musculus [3] = species: Mus musculus; assay: Toxicity in Swiss albino mouse assessed as reduction in sensory-motor response by Irwin test; assay type: organism-based; conditions: in vivo
Mus musculus [4] = species: Mus musculus; assay: Toxicity in Swiss albino mouse assessed as reduction in muscular tone after 180 mins by Irwin test; assay type: organism-based; conditions: in vivo, 3 h
Mus musculus [5] = species: Mus musculus; assay: Toxicity in Swiss albino mouse assessed as reduction in equilibrium after 180 mins by Irwin test; assay type: organism-based; conditions: in vivo, 3 h
Mus musculus [6] = species: Mus musculus; assay: Toxicity in Swiss albino mouse assessed as loss of righting reflex after 30 mins by Irwin test; assay type: organism-based; conditions: in vivo, 0.5 h
Mus musculus [7] = species: Mus musculus; assay: Toxicity in Swiss albino mouse assessed as loss of hypotonic gait after 30 mins by Irwin test; assay type: organism-based; conditions: in vivo, 0.5 h
Mus musculus [8] = species: Mus musculus; assay: Toxicity in Swiss albino mouse assessed as loss of sight after 30 mins by Irwin test; assay type: organism-based; conditions: in vivo, 0.5 h
[9] = Toxicity in Swiss albino mouse assessed as death after 5 days assessed after 24 hrs post treatment by Irwin test; assay type: organism-based; conditions: in vivo
Mus musculus [10] = species: Mus musculus; assay: Toxicity in Swiss albino mouse assessed as reduction in tremors by Irwin test; assay type: organism-based; conditions: in vivo
Mus musculus [11] = assay: Toxicity in Swiss albino mouse assessed as loss of spontaneous movement at 25 mg/kg, ip after 1 hr by Lim test; assay type: organism-based; set-up: dose 25 mg/kg, route intraperitoneal; conditions: in vivo
Mus musculus [12] = assay: Toxicity in Swiss albino mouse assessed as loss of muscle tone at 25 mg/kg, ip after 1 hr by Lim test; assay type: organism-based, Muscle tissue; set-up: dose 25 mg/kg, route intraperitoneal; conditions: in vivo
Mus musculus [13] = assay: Toxicity in Swiss albino mouse assessed as loss of righting reflex at 25 mg/kg, ip after 1 hr by Lim test; assay type: organism-based; set-up: dose 25 mg/kg, route intraperitoneal; conditions: in vivo
Mus musculus [14] = assay: Toxicity in Swiss albino mouse assessed as loss of spontaneous movement at 50 mg/kg, ip after 1 hr by Lim test; assay type: organism-based; set-up: dose 50 mg/kg, route intraperitoneal; conditions: in vivo
Mus musculus [15] = assay: Toxicity in Swiss albino mouse assessed as loss of muscle tone at 50 mg/kg, ip after 1 hr by Lim test; assay type: organism-based, Muscle tissue; set-up: dose 50 mg/kg, route intraperitoneal; conditions: in vivo
Mus musculus [16] = assay: Toxicity in Swiss albino mouse assessed as loss of righting reflex at 50 mg/kg, ip after 1 hr by Lim test; assay type: organism-based; set-up: dose 50 mg/kg, route intraperitoneal; conditions: in vivo
Mus musculus [17] = assay: Toxicity in Swiss albino mouse assessed as loss of spontaneous movement at 10 mg/kg, ip after 1 hr by Lim test; assay type: organism-based; set-up: dose 10 mg/kg, route intraperitoneal; conditions: in vivo
Mus musculus [18] = assay: Toxicity in Swiss albino mouse assessed as loss of muscle tone at 10 mg/kg, ip after 1 hr by Lim test; assay type: organism-based, Muscle tissue; set-up: dose 10 mg/kg, route intraperitoneal; conditions: in vivo
Mus musculus [19] = assay: Toxicity in Swiss albino mouse assessed as loss of righting reflex at 10 mg/kg, ip after 1 hr by Lim test; assay type: organism-based; set-up: dose 10 mg/kg, route intraperitoneal; conditions: in vivo
CCRF-CEM [20] = assay: Growth inhibition of human CCRF-CEM cells at 100 uM; assay type: functional; conditions: read-out: GI
CCRF-CEM [21] = assay: Growth inhibition of human CCRF-CEM cells; assay type: functional
K562 [22] = assay: Growth inhibition of human K562 cells at 100 uM; assay type: functional; conditions: read-out: GI
K562 [23] = assay: Growth inhibition of human K562 cells; assay type: functional
MOLT-4 [24] = assay: Growth inhibition of human MOLT4 cells at 100 uM; assay type: functional; conditions: read-out: GI
MOLT-4 [25] = assay: Growth inhibition of human MOLT4 cells; assay type: functional
RPMI-8226 [26] = assay: Growth inhibition of human RPMI8226 cells at 100 uM; assay type: functional; conditions: read-out: GI
RPMI-8226 [27] = assay: Growth inhibition of human RPMI8226 cells; assay type: functional
M19-MEL [28] = assay: Growth inhibition of human M19-MEL cells at 100 uM; assay type: functional; conditions: read-out: GI
M19-MEL [29] = assay: Growth inhibition of human M19-MEL cells; assay type: functional
SK-MEL-2 [30] = assay: Growth inhibition of human SK-MEL-2 cells at 100 uM; assay type: functional; conditions: read-out: GI
SK-MEL-2 [31] = assay: Growth inhibition of human SK-MEL-2 cells; assay type: functional
SK-MEL-5 [32] = assay: Growth inhibition of human SK-MEL-5 cells at 100 uM; assay type: functional; conditions: read-out: GI
SK-MEL-5 [33] = assay: Growth inhibition of human SK-MEL-5 cells; assay type: functional
UACC-257 [34] = assay: Growth inhibition of human UACC257 cells at 100 uM; assay type: functional; conditions: read-out: GI
UACC-257 [35] = assay: Growth inhibition of human UACC257 cells; assay type: functional
SF-268 [36] = assay: Growth inhibition of human SF268 cells at 100 uM; assay type: functional; conditions: read-out: GI
SF-268 [37] = assay: Growth inhibition of human SF268 cells; assay type: functional
SNB-19 [38] = assay: Growth inhibition of human SNB19 cells at 100 uM; assay type: functional; conditions: read-out: GI
SNB-19 [39] = assay: Growth inhibition of human SNB19 cells; assay type: functional
SNB-75 [40] = assay: Growth inhibition of human SNB75 cells at 100 uM; assay type: functional; conditions: read-out: GI
SNB-75 [41] = assay: Growth inhibition of human SNB75 cells; assay type: functional
UO-31 [42] = assay: Growth inhibition of human UO31 cells at 100 uM; assay type: functional; conditions: read-out: GI
UO-31 [43] = assay: Growth inhibition of human UO31 cells; assay type: functional
DMS-273 [44] = assay: Growth inhibition of human DMS273 cells at 100 uM; assay type: functional; conditions: read-out: GI
DMS-273 [45] = assay: Growth inhibition of human DMS273 cells; assay type: functional
NCI-H226 [46] = assay: Growth inhibition of human NCI-H226 cells at 100 uM; assay type: functional; conditions: read-out: GI
NCI-H226 [47] = assay: Growth inhibition of human NCI-H226 cells; assay type: functional
NCI-H23 [48] = assay: Growth inhibition of human NCI-H23 cells at 100 uM; assay type: functional; conditions: read-out: GI
NCI-H23 [49] = assay: Growth inhibition of human NCI-H23 cells
NCI-H522 [50] = assay: Growth inhibition of human NCI-H522 cells at 100 uM; assay type: functional; conditions: read-out: GI
NCI-H522 [51] = assay: Growth inhibition of human NCI-H522 cells; assay type: functional
HCC 2998 [52] = assay: Growth inhibition of human HCC2998 cells at 100 uM; assay type: functional; conditions: read-out: GI
HCC 2998 [53] = assay: Growth inhibition of human HCC2998 cells; assay type: functional
HCT-116 [54] = assay: Growth inhibition of human HCT116 cells at 100 uM; assay type: functional; conditions: read-out: GI
HCT-116 [55] = assay: Growth inhibition of human HCT116 cells; assay type: functional
KM12 [56] = assay: Growth inhibition of human KM12 cells at 100 uM; assay type: functional; conditions: read-out: GI
KM12 [57] = assay: Growth inhibition of human KM12 cells; assay type: functional
OVCAR-3 [58] = assay: Growth inhibition of human OVCAR-3 cells at 100 uM; assay type: functional; conditions: read-out: GI
OVCAR-3 [59] = assay: Growth inhibition of human OVCAR-3 cells; assay type: functional
OVCAR-4 [60] = assay: Growth inhibition of human OVCAR4 cells at 100 uM; assay type: functional; conditions: read-out: GI
OVCAR-4 [61] = assay: Growth inhibition of human OVCAR4 cells; assay type: functional
Mus musculus [62] = species: Mus musculus; assay: Toxicity in Swiss albino mouse assessed as reduction in twitches by Irwin test; assay type: organism-based; conditions: in vivo
Mus musculus [63] = species: Mus musculus; assay: Toxicity in Swiss albino mouse assessed as reduction in convulsions by Irwin test; assay type: organism-based; conditions: in vivo
Mus musculus [64] = species: Mus musculus; assay: Toxicity in Swiss albino mouse assessed as involvement of autonomic nervous system; assay type: organism-based; conditions: in vivo

O=C1OCc2c1cc1ccc(O)c(O[C@@H]3O[C@H](CO)[C@@H](O)[C@H](O)[C@H]3O)c1c2-c1ccc2c(c1)OCO2 [ELENOSIDE]
Activity (Mus musculus [1]): Toxic
Activity (Mus musculus [2]): Dose-dependent effect
Activity (Mus musculus [3]): Dose-dependent effect
Activity (Mus musculus [4]): Dose-dependent effect
Activity (Mus musculus [5]): Toxic
Activity (Mus musculus [6]): Toxic
Activity (Mus musculus [7]): Toxic
Activity (Mus musculus [8]): Toxic
LD50 at 5 days [9]: 3.05 mg/kg
Activity (Mus musculus [10]): Non-toxic
Activity (Mus musculus [11]): 50%
Activity (Mus musculus [12]): 50%
Activity (Mus musculus [13]): 20%
Activity (Mus musculus [14]): 60%
Activity (Mus musculus [15]): 60%
Activity (Mus musculus [16]): 20%
Activity (Mus musculus [17]): 90%
Activity (Mus musculus [18]): 90%
Activity (Mus musculus [19]): 40%
inhibition of growth at 100 µM (CCRF-CEM [20]): 84%
GI50 (CCRF-CEM [21]): 34.9 µM
inhibition of growth at 100 µM (K562 [22]): 79%
GI50 (K562 [23]): 39.5 µM
inhibition of growth at 100 µM (MOLT-4 [24]): 88%
GI50 (MOLT-4 [25]): 34.3 µM
inhibition of growth at 100 µM (RPMI-8226 [26]): 97%
GI50 (RPMI-8226 [27]): 34.6 µM
inhibition of growth at 100 µM (M19-MEL [28]): 81%
GI50 (M19-MEL [29]): 38.2 µM
inhibition of growth at 100 µM (SK-MEL-2 [30]): 84%
GI50 (SK-MEL-2 [31]): 33.5 µM
inhibition of growth at 100 µM (SK-MEL-5 [32]): 114%
GI50 (SK-MEL-5 [33]): 26.2 µM
inhibition of growth at 100 µM (UACC-257 [34]): 72%
GI50 (UACC-257 [35]): 37.9 µM
inhibition of growth at 100 µM (SF-268 [36]): 70%
GI50 (SF-268 [37]): 57.1 µM
inhibition of growth at 100 µM (SNB-19 [38]): 81%
GI50 (SNB-19 [39]): 36 µM
inhibition of growth at 100 µM (SNB-75 [40]): 66%
GI50 (SNB-75 [41]): 55.2 µM
inhibition of growth at 100 µM (UO-31 [42]): 80%
GI50 (UO-31 [43]): 27.2 µM
inhibition of growth at 100 µM (DMS-273 [44]): 67%
GI50 (DMS-273 [45]): 47.5 µM
inhibition of growth at 100 µM (NCI-H226 [46]): 72%
GI50 (NCI-H226 [47]): 48.4 µM
inhibition of growth at 100 µM (NCI-H23 [48]): 72%
GI50 (NCI-H23 [49]): 47.5 µM
inhibition of growth at 100 µM (NCI-H522 [50]): 126%
GI50 (NCI-H522 [51]): 22.6 µM
inhibition of growth at 100 µM (HCC 2998 [52]): 87%
GI50 (HCC 2998 [53]): 38.2 µM
inhibition of growth at 100 µM (HCT-116 [54]): 77%
GI50 (HCT-116 [55]): 39.7 µM
inhibition of growth at 100 µM (KM12 [56]): 77%
GI50 (KM12 [57]): 23.4 µM
inhibition of growth at 100 µM (OVCAR-3 [58]): 60%
GI50 (OVCAR-3 [59]): 64.6 µM
inhibition of growth at 100 µM (OVCAR-4 [60]): 66%
GI50 (OVCAR-4 [61]): 56.2 µM
Activity (Mus musculus [62]): Non-toxic
Activity (Mus musculus [63]): Non-toxic
Activity (Mus musculus [64]): Toxic
